Laboratory results from patent publication US7186701B2, “Dehydrating agent and method for dehydrating moist article using the agent and dehydrated article obtained by the method” (Kabushiki Kaisha Hayashibara Seibutsu Kagaku Kenkyujo, priority 2001, dated 2007).

Key:
[1] = Dehydration and pulverization of plain yogurt by non-reducing saccharide; set-up: unit not given here; conditions: listed as A
Description: The anhydrous crystalline cyclotetrasaccharide; crystalline cyclotetrasaccharide, monohydrate; and anhydrous amorphous cyclotetrasaccharide were respectively prepared by the methods in Examples A-1, A-2, and A-3. As the crystalline α,α-trehalose, dihydrate, a commercially available “TREHA®” commercialized by Hayashibara Shoji Inc., Okayama, Japan, was used. The anhydrous crystalline α,α-trehalose and the anhydrous amorphous α,α-trehalose used in this experiment were prepared from a commercialized crystalline α,α-trehalose, dihydrate, using the methods disclosed in Examples for Reference 1 and 3 in Japanese Patent Kokai No. 170,221/94. To four parts by weight of a plain yogurt with a moisture content of about 77% was added either of the above saccharides in an amount of 11 to 16 parts by weight. The resultant mixtures were respectively placed in vats, allowed to stand at 25° C. for 24 hours, and macroscopically observed their change on standing. The judgement was conducted in such a manner of sufficiently dehydrating the resulting mixtures to be solidified, subjected to a pulverizer for pulverization, and evaluated as “◯”, when the solids were easily pulverized; “Δ”, when the dehydration of the resulting mixtures was rather insufficient and the pulverization of solids was substantially difficult, though the resulting mixtures were solidified; and “x”, when the dehydration of the resulting mixtures was insufficient and could not be pulverized by a pulverizer.

[2] = Dehydrating action: moisture absorption on standing at controlled relative humidity; assay type: physicochemical; conditions: for moisture content (%) by the Karl Fisher method: 25° C., listed as A
Excerpt: Anhydrous crystalline cyclotetrasaccharide; crystalline cyclotetrasaccharide, monohydrate; anhydrous amorphous cyclotetrasaccharide; and crystalline cyclotetrasaccharide, penta- or hexa-hydrate were experimented in detail on their dehydrating actions, particularly, moisture absorption abilities against saccharides and changes on standing. As a control, anhydrous crystalline α,α-trehalose, anhydrous amorphous α,α-trehalose, and crystalline α,α-trehalose, dihydrate, were used as saccharides. The experiments were as follows: […]

Aspergillus niger = test: Bacterial contamination of gelatinized starch (gyuhi); conditions: 25° C., open conditions
Description: The mixture was mixed with a mixer and further mixed to homogeneity with two parts by weight of a starch hydrolyzate, shaped, and roughly dried for two hours, while blowing 40° C. hot air to the contents, to obtain “gyuhi” (a rice paste with sugar).

[3] = system: α-isomaltosylglucosaccharide-forming enzyme; test: Specificity of transfer acceptor (C9 enzyme); assay type: biochemical, Bacillus globisporus C9 strain; conditions: acceptor 1.6%, PINE-DEX #100 donor 4%, one unit/g donor, 30° C., pH 6.0, 24 hours
Description: (§1) A variety of saccharides were tested whether they could be used as transferring-acceptors for the α-isomaltosylglucosaccharide-forming enzyme. A solution of D-glucose, D-xylose, L-xylose, D-galactose, D-fructose, D-mannose, D-arabinose, D-fucose, L-sorbose, L-rhamnose, methyl-α-glucopyranoside, methyl-β-glucopyranoside, N-acetyl-glucosamine, sorbitol, α,α-trehalose, isomaltose, isomaltotriose, cellobiose, gentibiose, maltitol, lactose, sucrose, α-cyclodextrin, β-cyclodextrin, or γ-cyclodextrin was prepared. […] The reaction mixtures after the enzymatic reactions were analyzed on gas chromatography (abbreviated as “GLC” hereinafter) for monosaccharides and disaccharides as acceptors, and on HPLC for trisaccharides and higher saccharides as acceptors to confirm whether these saccharides could be used as their transfer acceptors. In the case of performing GLC, the following apparatuses and conditions were used: […] In the case of HPLC analysis, the apparatuses and conditions used were: HPLC apparatus, “CCPD” commercialized by Tosoh Corporation, Tokyo, Japan; column, “ODS-AQ-303” commercialized by YMC Co., Ltd., Tokyo, Japan; eluent, water at a flow rate of 0.5 ml/min; and detection, a differential refractometer.

[4] = system: α-isomaltosylglucosaccharide-forming enzyme; test: Specificity of transfer acceptor (C11 enzyme); assay type: biochemical, Bacillus globisporus C11 strain; conditions: acceptor 1.6%, PINE-DEX #100 donor 4%, one unit/g donor, 30° C., pH 6.0, 24 hours
Description: as §1

amylopsin = molecular target: T1, amylopsin (Homo sapiens, UniProt P04746); test: Digestion test in vitro, amylopsin
T1 sequence (P04746 16-511): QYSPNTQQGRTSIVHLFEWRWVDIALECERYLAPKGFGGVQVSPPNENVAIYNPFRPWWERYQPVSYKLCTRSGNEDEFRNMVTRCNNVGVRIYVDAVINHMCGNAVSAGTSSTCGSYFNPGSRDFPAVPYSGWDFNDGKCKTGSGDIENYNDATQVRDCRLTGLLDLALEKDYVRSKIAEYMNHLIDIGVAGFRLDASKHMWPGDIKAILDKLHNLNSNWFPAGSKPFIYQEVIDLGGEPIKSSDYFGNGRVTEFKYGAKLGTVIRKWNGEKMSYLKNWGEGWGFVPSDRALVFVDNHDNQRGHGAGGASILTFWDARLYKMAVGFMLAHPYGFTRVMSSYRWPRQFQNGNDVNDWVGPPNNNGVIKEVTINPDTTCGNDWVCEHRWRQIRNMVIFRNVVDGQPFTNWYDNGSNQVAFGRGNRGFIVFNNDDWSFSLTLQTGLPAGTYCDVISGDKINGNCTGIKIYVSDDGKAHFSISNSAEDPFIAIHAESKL

salivary amylase = molecular target: T2, salivary amylase (Homo sapiens, UniProt P0DUB6); test: Digestion test in vitro, salivary amylase
T2 sequence (P0DUB6 16-511): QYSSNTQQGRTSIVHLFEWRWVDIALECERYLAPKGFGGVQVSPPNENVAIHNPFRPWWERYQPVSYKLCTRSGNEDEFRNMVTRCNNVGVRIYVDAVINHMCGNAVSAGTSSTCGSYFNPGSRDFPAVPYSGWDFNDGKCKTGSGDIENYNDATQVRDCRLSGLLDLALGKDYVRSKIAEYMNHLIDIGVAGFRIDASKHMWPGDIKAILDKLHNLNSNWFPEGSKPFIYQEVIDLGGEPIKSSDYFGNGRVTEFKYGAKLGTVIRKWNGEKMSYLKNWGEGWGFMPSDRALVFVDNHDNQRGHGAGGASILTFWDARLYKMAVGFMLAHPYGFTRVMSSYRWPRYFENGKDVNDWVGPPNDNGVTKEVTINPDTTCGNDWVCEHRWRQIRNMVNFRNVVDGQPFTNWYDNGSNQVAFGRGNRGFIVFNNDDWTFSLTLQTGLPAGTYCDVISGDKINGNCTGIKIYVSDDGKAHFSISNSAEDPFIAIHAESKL

[5] = Digestion test in vitro, synthetic gastric juice
[6] = system: Small intestinal mucosal enzyme; test: Digestion test in vitro, small intestinal mucosal enzyme
[7] = system: α-isomaltosylglucosaccharide-forming enzyme; test: Influence of metal ions on α-isomaltosylglucosaccharide-forming enzyme activity (C9 strain); assay type: biochemical, Bacillus globisporus C9 strain; conditions: in the presence of 1 mM metal salt; None = 100
Description: (§2) The activities of these enzymes were assayed as follows: The activity of α-isomaltosylglucosaccharide-forming enzyme was assayed by dissolving maltotriose in 100 mM acetate buffer (pH 6.0) to give a concentration of 2% (w/v) for a substrate solution, adding 0.5 ml of an enzyme solution to 0.5 ml of the substrate solution, enzymatically reacting the mixture solution at 35° C. for 60 min, boiling the reaction mixture for 10 min to suspend the enzymatic reaction, and quantifying maltose, among the isomaltosyl maltose and maltose formed in the reaction mixture, on HPLC as described in Experiment 1. One unit activity of the α-isomaltosylglucosaccharide-forming enzyme was defined as the enzyme amount that forms one micromole of maltose per minute under the above enzymatic reaction conditions.
(§3) The influence of metal ions on the activity of α-isomaltosylglucosaccharide-forming enzyme was examined in the presence of 1 mM of any of metal salts according to the assay for the enzyme activity.

[8] = system: Bacteroides vulgatus JCM 5826; test: Assimilation test; assay type: cell-based; conditions: 0.5% saccharide in PYF medium, 37° C., four days, anaerobic
[9] = system: Bifidobacterium adolescentis JCM 1275; test: Assimilation test; assay type: cell-based; conditions: 0.5% saccharide in PYF medium, 37° C., four days, anaerobic
[10] = system: Clostridium perfringens JCM 3816; assay type: cell-based; conditions: 0.5% saccharide in PYF medium, 37° C., four days, anaerobic
[11] = system: Escherichia coli IFO 3301; test: Assimilation test; assay type: cell-based; conditions: 0.5% saccharide in PYF medium, 37° C., four days, anaerobic
[12] = system: Eubacterium aerofaciens ATCC 25986; test: Assimilation test; assay type: cell-based; conditions: 0.5% saccharide in PYF medium, 37° C., four days, anaerobic
[13] = system: Lactobacillus acidophilus JCM 1132; test: Assimilation test; assay type: cell-based; conditions: 0.5% saccharide in PYF medium, 37° C., four days, anaerobic
[14] = system: α-isomaltosylglucosaccharide-forming enzyme; test: Influence of metal ions on α-isomaltosylglucosaccharide-forming enzyme activity (C11 strain); assay type: biochemical, Bacillus globisporus C11 strain; conditions: in the presence of 1 mM metal salt; None = 100
Description: as §2, §3

OC[C@H]1O[C@@H]2OC[C@H]3O[C@H](O[C@@H]4[C@@H](O)[C@@H](OC[C@H]5O[C@H](O[C@H]([C@H]2O)[C@@H]1O)[C@H](O)[C@@H](O)[C@@H]5O)O[C@H](CO)[C@H]4O)[C@H](O)[C@@H](O)[C@@H]3O [Saccharide A, anhydrous crystalline cyclotetrasaccharide]
Water content (before use) [1]: 0.2 | moisture content (%) by the Karl Fisher method ([2]; relative humidity 60%, 0 days after treatment): 0.2% | moisture content (%) by the Karl Fisher method ([2]; relative humidity 60%, 1 day after treatment): 10.2% | moisture content (%) by the Karl Fisher method ([2]; relative humidity 60%, 2 days after treatment): 10.3% | moisture content (%) by the Karl Fisher method ([2]; relative humidity 60%, 3 days after treatment): 10.3% | moisture content (%) by the Karl Fisher method ([2]; relative humidity 60%, 7 days after treatment): 10.4% | moisture content (%) by the Karl Fisher method ([2]; relative humidity 75%, 0 days after treatment): 0.2% | moisture content (%) by the Karl Fisher method ([2]; relative humidity 75%, 1 day after treatment): 13.9% | moisture content (%) by the Karl Fisher method ([2]; relative humidity 75%, 2 days after treatment): 14.4% | moisture content (%) by the Karl Fisher method ([2]; relative humidity 75%, 3 days after treatment): 14.4% | moisture content (%) by the Karl Fisher method ([2]; relative humidity 75%, 7 days after treatment): 14.3% | moisture absorption level, % of its weight ([2]; relative humidity of 60%, listed as anhydrous crystalline cyclotetrasaccharide): about 10% | moisture absorption level, % of its weight ([2]; relative humidity of 75%): about 14% | bacterial contamination in gyuhi (Aspergillus niger; at 30 days on standing): found no bacterial contamination

OC[C@@H](O)[C@@H](O[C@H]1O[C@H](CO)[C@@H](O)[C@H](O)[C@H]1O)[C@H](O)[C@@H](O)CO [Maltitol, maltitol]
Product of saccharide transferring reaction, Enzyme of C9 strain [3]: ++ (a saccharide-transferred product was detected in an amount of at least ten percent through transferring reaction to acceptor) | Product of saccharide transferring reaction, Enzyme of C11 strain [4]: ++ (a saccharide-transferred product was detected in an amount of at least ten percent through transferring reaction to acceptor) | Decomposition percentage (%) by digestive enzyme (amylopsin): 0.0% | Decomposition percentage (%) by digestive enzyme (salivary amylase): 0.0% | Decomposition percentage (%) by digestive enzyme [5]: 0.0% | Decomposition percentage (%) by digestive enzyme [6]: 4.0%

[Mg+2] [Mg^2+]
Relative activity (%) [7]: 100%

O=C[C@H](O)[C@@H](O)[C@H](O)[C@H](O)CO [D-Glucose, D-glucose, reference compound]
Product of saccharide transferring reaction, Enzyme of C9 strain [3]: + (a saccharide-transferred product was detected in an amount of at least one percent but less than ten percent through transferring reaction to acceptor) | Product of saccharide transferring reaction, Enzyme of C11 strain [4]: + (a saccharide-transferred product was detected in an amount of at least one percent but less than ten percent through transferring reaction to acceptor) | Assimilability [8]: + (judged as positive (+) when the post culture had a pH of below 6.0) | Assimilability [9]: + (judged as positive (+) when the post culture had a pH of below 6.0) | Assimilability [10]: + (judged as positive (+) when the post culture had a pH of below 6.0) | Assimilability [11]: + (judged as positive (+) when the post culture had a pH of below 6.0) | Assimilability [12]: + (judged as positive (+) when the post culture had a pH of below 6.0) | Assimilability [13]: + (judged as positive (+) when the post culture had a pH of below 6.0)

[Al+3] [Al^3+]
Relative activity (%) [14]: 100%

[Fe+2] [Fe^2+]
Relative activity (%) [14]: 100%

crystalline cyclotetrasaccharide, penta- or hexa-hydrate [Saccharide D]
colonies of Aspergillus niger found in gyuhi, days on standing (Aspergillus niger; gyuhi with six parts by weight of saccharide): 15 days
